Reference: US9493444B2 (Merck Patent GmbH, priority 2012, dated 2016)

These compounds were tested on Wnt pathway (TCF-dependent transcription in HEK293 luciferase reporter cell line with ER-DSH construct) (assay: Cellular assay for Wnt pathway activity (luciferase reporter)). Settings: Homo sapiens; Wnt pathway inhibition, HEK293 luciferase reporter cells (ER-DSH, TCF promoter), 24 hours incubation, estrogen-induced.
Assay type: cell-based
In short: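 Compounds (30 μM down to 1 nM) were incubated 24 h on cells induced for TCF-dependent transcription with estrogen. Luciferase activity was read by luminescence, normalized to untreated vehicle control, and fitted for IC50.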
Work on `CC(=O)Nc1ccc(-c2ccc(Oc3cncc(NCCN(C)C(C)=O)n3)cc2)cn1` [Compound 260, N-(2-{6-[4-(6-Acetylamino-pyridin-3-yl)-phenoxy]-pyrazin-2-ylamino}-ethyl)-N-methyl-acetamide] yielded an IC50 of 200 to 1000 nM. For `CC(=O)N(C)CCN(C)c1cncc(Oc2ccc(-c3ccnnc3)cc2)n1` [Compound 261, N-Methyl-N-(2-{methyl-[6-(4-pyridazin-4-yl-phenoxy)-pyrazin-2-yl]-amino}-ethyl)-acetamide], the IC50 was less than 200 nM. For `CC(=O)N(C)CCNc1cncc(Oc2ccc(-c3ccc(F)cn3)cc2)n1` [Compound 262, N-(2-{6-[4-(5-Fluoro-pyridin-2-yl)-phenoxy]-pyrazin-2-ylamino}-ethyl)-N-methyl-acetamide], the IC50 was 1000 to 10000 nM. `Nc1cnc(-c2ccc(Oc3cncc(CCCN4CCCCC4=O)n3)cc2)cn1` [Compound 263, 1-(3-{6-[4-(5-Amino-pyrazin-2-yl)-phenoxy]-pyrazin-2-yl}-propyl)-piperidin-2-one] was tested, and the IC50 was less than 200 nM. In the case of `CC(=O)N(C)CCCc1cncc(Oc2ccc(F)cc2)n1` [Compound 264, N-{3-[6-(4-Fluoro-phenoxy)-pyrazin-2-yl]-propyl}-N-methyl-acetamide], the IC50 is reported as 1000 to 10000 nM. Work on `CNCc1ccc(-c2ccc(Oc3cncc(N(C)CCN(C)C(C)=O)n3)cc2)cn1` [Compound 265, N-Methyl-N-[2-(methyl-{6-[4-(6-methylaminomethyl-pyridin-3-yl)-phenoxy]-pyrazin-2-yl}-amino)-ethyl]-acetamide] yielded an IC50 of less than 200 nM. Work on `CC(=O)N(C)CCCc1cncc(Oc2ccc(-c3ccncc3C#N)cc2F)n1` [Compound 266, N-(3-{6-[4-(3-Cyano-pyridin-4-yl)-2-fluoro-phenoxy]-pyrazin-2-yl}-propyl)-N-methyl-acetamide] yielded an IC50 of less than 200 nM. In the case of `CC(=O)N(C)CCCc1cncc(Oc2ccc(-c3ccc(N4CCOCC4)nc3)cc2F)n1` [Compound 267, N-(3-{6-[2-Fluoro-4-(6-morpholin-4-yl-pyridin-3-yl)-phenoxy]-pyrazin-2-yl}-propyl)-N-methyl-acetamide], the IC50 is reported as 200 to 1000 nM. `CC(=O)N(C)CCCc1cncc(Oc2ccc(-c3ccc(C)cn3)cc2F)n1` [Compound 268, N-(3-{6-[2-Fluoro-4-(5-methyl-pyridin-2-yl)-phenoxy]-pyrazin-2-yl}-propyl)-N-methyl-acetamide] showed an IC50 of less than 200 nM. `CC(=O)N(C)CCCc1cncc(Oc2ccc(-c3cnc(N)cn3)cc2F)n1` [Compound 269, N-(3-{6-[4-(5-Amino-pyrazin-2-yl)-2-fluoro-phenoxy]-pyrazin-2-yl}-propyl)-N-methyl-acetamide] gave an IC50 of 200 to 1000 nM. `CC(=O)N(C)CCCc1cncc(Oc2ccc(-c3ccncc3)cc2F)n1` [Compound 270, N-{3-[6-(2-Fluoro-4-pyridin-4-yl-phenoxy)-pyrazin-2-yl]-propyl}-N-methyl-acetamide] gave an IC50 of 200 to 1000 nM. `CC(=O)N(C)CCN(C)c1cncc(Oc2ccc(-c3ccc(CCNC(=O)CCCCCNC(=O)CCCCC4SCC5NC(=O)NC54)cc3)cc2)n1` (stereo not drawn) [Compound 271, 6-[5-(2-Oxo-hexahydro-thieno[3,4-d]imidazol-6-yl)-pentanoyl-amino]-hexanoic acid {2-[4′-(6-{[2-(acetyl-methyl-amino)-ethyl]-methyl-amino}-pyrazin-2-yloxy)-biphenyl-4-yl]-ethyl}-amide] gave an IC50 of less than 200 nM. Compound `CC(=O)N(C)CCN(C)c1cncc(Oc2ccc(-c3ccc(CN(C)C(=O)CCCCCNC(=O)CCCCC4SCC5NC(=O)NC54)nc3)cc2)n1` (stereo not drawn) [Compound 272, 6-[5-(2-Oxo-hexahydro-thieno[3,4-d]imidazol-6-yl)-pentanoyl-amino]-hexanoic acid {5-[4-(6-{[2-(acetyl-methyl-amino)-ethyl]-methyl-amino}-pyrazin-2-yloxy)-phenyl]-pyridin-2-ylmethyl}-methyl-amide] has an IC50 of less than 200 nM. Work on `CC(=O)N(C)CCN(C)c1cncc(Oc2ccc(-c3ccc(N=[N+]=[N-])cn3)cc2)n1` [Compound 273, N-[2-({6-[4-(5-Azido-pyridin-2-yl)-phenoxy]-pyrazin-2-yl}-methyl-amino)-ethyl]-N-methyl-acetamide] yielded an IC50 of less than 200 nM. `CC(=O)N(C)CCCc1cncc(Oc2ccc(-c3ccc([N+](=O)[O-])cn3)cc2F)n1` [Compound 274, N-(3-{6-[2-Fluoro-4-(5-nitro-pyridin-2-yl)-phenoxy]-pyrazin-2-yl}-propyl)-N-methyl-acetamide] gave an IC50 of 1000 to 10000 nM. With `CC(=O)N(C)CCNc1cncc(Oc2ccc(-c3cncc(S(C)(=O)=O)c3)cc2)n1` [Compound 275, N-(2-{6-[4-(5-Methane-sulfonyl-pyridin-3-yl)-phenoxy]-pyrazin-2-ylamino}-ethyl)-N-methyl-acetamide] the IC50 was 1000 to 10000 nM. `CC(=O)N(C)CCNc1cncc(Oc2ccc(-c3ccc(C#N)nc3)cc2)n1` [Compound 276, N-(2-{6-[4-(6-Cyano-pyridin-3-yl)-phenoxy]-pyrazin-2-ylamino}-ethyl)-N-methyl-acetamide] showed an IC50 of 200 to 1000 nM. For `O=C1OCCN1CCNc1cncc(Oc2ccc(F)cc2)n1` [Compound 277, 3-{2-[6-(4-Fluoro-phenoxy)-pyrazin-2-ylamino]-ethyl}-oxazolidin-2-one], the IC50 was 1000 to 10000 nM. With `O=C1NCCN1CCNc1cncc(Oc2ccc(F)cc2)n1` [Compound 278, 1-{2-[6-(4-Fluoro-phenoxy)-pyrazin-2-ylamino]-ethyl}-imidazolidin-2-one] the IC50 was 200 to 1000 nM. `CC(=O)N(C)CCN(C)c1cncc(Oc2ccc(-c3cccnc3)c(F)c2F)n1` [Compound 279, N-(2-{[6-(2,3-Difluoro-4-pyridin-3-yl-phenoxy)-pyrazin-2-yl]-methyl-amino}-ethyl)-N-methyl-acetamide] showed an IC50 of less than 200 nM. Work on `CC(=O)N(C)CCN(C)c1cncc(Oc2ccc(-c3ccc(N)nc3)c(F)c2F)n1` [Compound 280, N-[2-({6-[4-(6-Amino-pyridin-3-yl)-2,3-difluoro-phenoxy]-pyrazin-2-yl}-methyl-amino)-ethyl]-N-methyl-acetamide] yielded an IC50 of less than 200 nM. In the case of `CN(CCN(C)S(C)(=O)=O)c1cncc(Oc2ccc(F)cc2)n1` [Compound 281, N-(2-{[6-(4-Fluoro-phenoxy)-pyrazin-2-yl]-methyl-amino}-ethyl)-N-methyl-methane-sulfonamide], the IC50 is reported as 1000 to 10000 nM. `CC(=O)N(C)CCCc1cncc(Oc2ccc(-c3ccc(N)cn3)cc2F)n1` [Compound 282, N-(3-{6-[4-(5-Amino-pyridin-2-yl)-2-fluoro-phenoxy]-pyrazin-2-yl}-propyl)-N-methyl-acetamide] was tested, and the IC50 was less than 200 nM. Work on `CN(CCC1(O)CCCC1)c1cncc(Oc2ccc(F)cc2)n1` [Compound 283, 1-(2-{[6-(4-Fluoro-phenoxy)-pyrazin-2-yl]-methyl-amino}-ethyl)-cyclopentanol] yielded an IC50 of 200 to 1000 nM. Compound `CN(CCN(C)c1cncc(Oc2ccc(F)cc2)n1)C(=O)CN` [Compound 284, 2-Amino-N-(2-{[6-(4-fluoro-phenoxy)-pyrazin-2-yl]-methyl-amino}-ethyl)-N-methyl-acetamide] has an IC50 of 1000 to 10000 nM. Work on `CN(CCN(C)c1cncc(Oc2ccc(F)cc2)n1)C(=O)CN(C)C(=O)OC(C)(C)C` [Compound 285, {[(2-{[6-(4-Fluoro-phenoxy)-pyrazin-2-yl]-methyl-amino}-ethyl)-methyl-carbamoyl]-methyl}-methyl-carbamic acid tert-butyl ester] yielded an IC50 of 1000 to 10000 nM. For `CN(CCN(C)c1cncc(Oc2ccc(F)cc2)n1)C(=O)CO` [Compound 286, N-(2-{[6-(4-Fluoro-phenoxy)-pyrazin-2-yl]-methyl-amino}-ethyl)-2-hydroxy-N-methyl-acetamide], the IC50 was less than 200 nM. For `CC(=O)N(C)CCN(C)c1cncc(Oc2ccc(-c3ccc(N4CCN(C(=O)CCCCCNC(=O)CCCCC5SCC6NC(=O)NC65)CC4)nc3)cc2)n1` (stereo not drawn) [Compound 287, 5-(2-Oxo-hexahydro-thieno[3,4-d]imidazol-6-yl)-pentanoic acid [6-(4-{5-[4-(6-{[2-(acetyl-methyl-amino)-ethyl]-methyl-amino}-pyrazin-2-yloxy)-phenyl]-pyridin-2-yl}-piperazin-1-yl)-6-oxo-hexyl]-amide], the IC50 was less than 200 nM. For `CC(=O)N(C)CCNc1cncc(Oc2ccc(-c3ccnc(C#N)c3)cc2)n1` [Compound 288, N-(2-{6-[4-(2-Cyano-pyridin-4-yl)-phenoxy]-pyrazin-2-ylamino}-ethyl)-N-methyl-acetamide], the IC50 was 1000 to 10000 nM. With `CC(=O)NCC(C)Nc1cncc(Oc2ccc(F)cc2)n1` (stereo not drawn) [Compound 289, N-{2-[6-(4-Fluoro-phenoxy)-pyrazin-2-ylamino]-propyl}-acetamide] the IC50 was 1000 to 10000 nM. Work on `C=CC(=O)N(C)CCN(C)c1cncc(Oc2ccc(F)cc2)n1` [Compound 290, N-(2-{[6-(4-Fluoro-phenoxy)-pyrazin-2-yl]-methyl-amino}-ethyl)-N-methyl-acrylamide] yielded an IC50 of 1000 to 10000 nM. With `Nc1cnc(-c2ccc(Oc3cncc(NCCN4CCCCC4=O)n3)cc2)cn1` [Compound 291, 1-(2-{6-[4-(5-Amino-pyrazin-2-yl)-phenoxy]-pyrazin-2-ylamino}-ethyl)-piperidin-2-one] the IC50 was less than 200 nM. Compound `O=C1CCCCN1CCNc1cncc(Oc2ccc(-c3ccc(CO)nc3)cc2)n1` [Compound 292, 1-(2-{6-[4-(6-Hydroxy-methyl-pyridin-3-yl)-phenoxy]-pyrazin-2-ylamino}-ethyl)-piperidin-2-one] has an IC50 of less than 200 nM. `CC(=O)N(C)CCNc1cncc(Oc2ccc(-c3ccc(CO)cn3)cc2)n1` [Compound 293, N-(2-{6-[4-(5-Hydroxy-methyl-pyridin-2-yl)-phenoxy]-pyrazin-2-ylamino}-ethyl)-N-methyl-acetamide] was tested, and the IC50 was 200 to 1000 nM. Work on `CC(=O)N(C)CCNc1cncc(Oc2ccc(-c3ccc(S(N)(=O)=O)cn3)cc2)n1` [Compound 294, N-Methyl-N-(2-{6-[4-(5-sulfamoyl-pyridin-2-yl)-phenoxy]-pyrazin-2-ylamino}-ethyl)-acetamide] yielded an IC50 of 1000 to 10000 nM. `O=C1CCCCN1CCNc1cncc(Oc2ccc(-c3ccc(N4CCOCC4)nc3)cc2)n1` [Compound 295, 1-(2-{6-[4-(6-Morpholin-4-yl-pyridin-3-yl)-phenoxy]-pyrazin-2-ylamino}-ethyl)-piperidin-2-one] gave an IC50 of less than 200 nM.
